Consider four compounds from patent publication US7897611B2, “Pharmaceutical compositions and methods for relieving pain and treating central nervous system disorders” (Targacept, Inc., priority 2003, dated 2011).

For one data set, the system named is mice. The data set can be described thus: Hot plate test in mice (nociceptive reaction latency). In kind it is in vivo. The conditions noted are these: for Reaction Latency: hot plate 52°C, cutoff 30 seconds, mean ± SEM; for % variation of reaction latency: vs saline; for increase of nociceptive reaction latency vs vehicle controls: 1.0 mg/kg oral; for increase of nociceptive reaction latency vs vehicle-control: 60 mg/kg oral. As to the method:
The compounds of Example 1 (administered as the dihydrochloride salt of a 3:1 mixture of 3-(3-pyridinyl)-6-azabicyclo[3.2.1]oct-2-ene and 3-(3-pyridinyl)-6-azabicyclo[3.2.1]oct-3-ene) were evaluated in this Example using a “hot plate” test in mice. Briefly, the compounds of Example 1 (0.03, 0.1 and 0.3 mg free base/kg) were subcutaneously administered five minutes before the hot plate test. Morphine (10 mg/kg) was subcutaneously administered at 15 minutes before the test. Each mouse was placed on a metallic hot plate maintained at 52±0.2° C. The nociceptive reaction latency, characterized by licking reflex of the forepaws or by jumping off the hot plate, was recorded. The cutoff was set to 30 seconds.
The time course of the analgesic effect of the compounds of Example 1 (0.1, 0.3 and 1.0 mg free base/kg) was also assessed using the hot plate test following oral administration. Each dose of the compounds was administered to separate groups of animals at either 5, 15, 30 or 60 minutes prior to hot plate assessment. Morphine (60 mg/kg) and vehicle were also orally administered to separate groups of animals either 5, 15, 30, or 60 minutes before the test. Each mouse was placed on a metallic hot plate maintained at 52±0.2° C. The nociceptive reaction latency, characterized by licking reflex of the forepaws or by jumping off the hot plate, was recorded. The cutoff was set to 30 seconds.

Another data set relates to rats. The data set can be described thus: Rat model of peripheral mononeuropathy (Bennett Model), paw pressure test. It counts as in vivo. The conditions noted are these: for % Variation of nociceptive threshold, injured paw, vs vehicle-treated group / Nociceptive threshold, injured paw: Bennett model; for Nociceptive threshold, injured paw: paw pressure, mean ± SEM. How it is done: A rat model of peripheral mononeuropathy (Bennett Model) was also used to evaluate the antihyperalgesic properties of the compounds.
Briefly, peripheral mononeuropathy was induced by loose ligation of the sciatic nerve in anaesthetized rats (pentobarbital; 45 mg/kg by intraperitoneal route). Fourteen days later, the nociceptive threshold was evaluated using a mechanical nociceptive stimulation (paw pressure test). An increasing pressure was applied onto the hindpaw of the animal until the nociceptive reaction (vocalization or paw withdrawal) was reached. The pain threshold (grams of contact pressure) was measured in hindpaws, both ipsilateral (injured side) and contralateral (non-injured side) to the site of sciatic ligation injury, at 10 minutes after the oral treatment for the compounds (1 mg/kg) and 60 minutes after dosing for morphine (60 mg/kg) and vehicle.
The results were expressed as a) the nociceptive threshold (mean±SEM) in grams of contact pressure for the injured paw and for the non-injured paw in the vehicle-treated group, and b) the percentage of variation of the nociceptive threshold calculated from the mean value of the vehicle-treated group.

Where [1] appears, read: hot plate, 15 minutes after dosing.
[2] abbreviates: 1 mg/kg oral, 10 minutes after treatment.
Setting [3] is: 60 mg/kg oral, 60 minutes after dosing.

In turn, `C1=C(c2cccnc2)C2CNCC1C2.Cl.Cl` (stereo not drawn) gave a melting point of 192 to 195 °C.
As for “3-(3-pyridinyl)-6-azabicyclo[3.2.1]oct-2-ene dihydrochloride and 3-(3-pyridinyl)-6-azabicyclo[3.2.1]oct-3-ene dihydrochloride [Example 1]”, the “Reaction Latency” value with mice (0.03 mg free base/kg subcutaneous, five minutes before the test) was found to be 19.3 ± 2.8 s; in the data set with mice (0.1 mg free base/kg subcutaneous, five minutes before the test) it was 18.8 ± 2.2 s; in the data set on mice (0.3 mg free base/kg subcutaneous, five minutes before the test), 28.2 ± 1.8 s. In addition, the “% variation of reaction latency” value with mice (hot plate, 0.03 mg/kg subcutaneous, five minutes before the test) worked out at 72%; in the data set on mice (hot plate, 0.1 mg/kg subcutaneous, five minutes before the test), 68%; with mice (hot plate, 0.3 mg/kg subcutaneous, five minutes before the test), 152%. For the same compound, the “increase of nociceptive reaction latency vs vehicle controls” value in the data set on mice (hot plate, 5 minutes after dosing) is 82%; in the data set with mice (setting [1]), 97%. Moreover, the “effect on nociceptive threshold vs vehicle-treated group” value in the data set with mice (hot plate, lower oral doses (0.1 and 0.3 mg free base/kg), data not shown) was “failed to modify the nociceptive threshold”. The “behavioral side-effects following dosing” value with rats (1 mg/kg oral) is recorded as “No behavioral side-effects were observed”. The “% Variation of nociceptive threshold, injured paw, vs vehicle-treated group” value in the data set on rats (setting [2]) is 20%. The “Nociceptive threshold, injured paw” value in the data set with rats (setting [2]) was 132.0 ± 9.0 g.
In the case of `CN1CC[C@]23c4c5ccc(O)c4O[C@H]2[C@@H](O)C=C[C@H]3[C@H]1C5` [Morphine, reference compound], in the data set on mice (10 mg/kg subcutaneous, 15 minutes before the test), the “Reaction Latency” value worked out at 29.4 ± 0.5 s. In the data set with mice (hot plate, 10 mg/kg subcutaneous, 15 minutes before the test), the “% variation of reaction latency” value is reported as 163%. Also, the “increase of nociceptive reaction latency vs vehicle-control” value was determined as 69% in the data set with mice (setting [1]); 47% with mice (hot plate, 30 minutes after dosing); 37% in the data set with mice (hot plate, 60 minutes after dosing). Further, the “% Variation of nociceptive threshold, injured paw, vs vehicle-treated group” value in the data set with rats (setting [3]) stood at 144%. Moreover, the “Nociceptive threshold, injured paw” value with rats (setting [3]) stood at 268.0 ± 18.9 g.
On to `C1=C(c2cccnc2)CC2CNCC1C2.Cl.Cl` (stereo not drawn), for which the melting point was in the range of 219 to 221 °C.

One may read the melting point as the temperature of the solid-liquid transition.
